Source: ChEMBL document CHEMBL1201862, “PubChem BioAssay data set” (2004)
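Following 48 hours of exposure in 96-well plates, responses at five concentrations were used to interpolate endpoints linearly. Abbreviation: GI50, concentration required for 50% inhibition of growth.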 The source made the active and inactive calls. Rule as the data show it: active = GI50 up to about 1.1 µM and inactive = higher.

Columns and labels:
Experiment in all cases: NCI-60 cell line screen, 48 h
[1] = system: UACC-62
[2] = system: HCT-116
[3] = system: OVCAR-3
[4] = system: SF-295
[5] = system: BT-549
[6] = system: OVCAR-5
[7] = system: OVCAR-4
[8] = system: SF-268
[9] = system: NCI-H23
[10] = system: LOX IMVI
[11] = system: SR
[12] = system: K562
[13] = system: CAKI-1
[14] = system: M14
[15] = system: EKVX
[16] = system: SNB-75
[17] = system: A549
[18] = system: MDA-N
[19] = system: MOLT-4
[20] = system: TK-10

Row | SMILES | GI50 [1] | GI50 [2] | GI50 [3] | GI50 [4] | GI50 [5] | GI50 [6] | GI50 [7] | GI50 [8] | GI50 [9] | GI50 [10] | GI50 [11] | GI50 [12] | GI50 [13] | GI50 [14] | GI50 [15] | GI50 [16] | GI50 [17] | GI50 [18] | GI50 [19] | GI50 [20]
1 | O=C(O)[C@H]1NC[C@@H]2ON=C(Br)[C@@H]21 | > 100 µM (inactive) | > 100 µM (inactive) | > 100 µM (inactive) | > 100 µM (inactive) | > 100 µM (inactive) | > 100 µM (inactive) | > 100 µM (inactive) | > 100 µM (inactive) | > 100 µM (inactive) | > 100 µM (inactive) | > 100 µM (inactive) | > 100 µM (inactive) | > 100 µM (inactive) | > 100 µM (inactive) | > 100 µM (inactive) | > 100 µM (inactive) | > 100 µM (inactive) | > 100 µM (inactive) | > 100 µM (inactive) | > 100 µM (inactive)
2 | COc1cc(C2c3cc4c(cc3OC(O)C2C)OCO4)cc(OC)c1OC (centres undefined) | 0.349 µM (active) | 0.349 µM (active) | 0.243 µM (active) | 0.324 µM (active) | 1.14 µM (inactive) | 4.78 µM (inactive) | 2.8 µM (inactive) | 1.51 µM (inactive) | 0.59 µM (active) | 0.69 µM (active) | 0.2 µM (active) | 0.142 µM (active) | 0.612 µM (active) | 0.376 µM (active) | 1.53 µM (inactive) | 0.244 µM (active) | 0.381 µM (active) | 0.0887 µM (active) | 0.473 µM (active) | 34.9 µM (inactive)
3 | Cc1ncc([N+](=O)[O-])n1CCNC(=O)CCC(=O)NCCCn1ccnc1[N+](=O)[O-] | > 100 µM (inactive) | > 100 µM (inactive) | > 100 µM (inactive) | > 100 µM (inactive) | > 100 µM (inactive) | > 100 µM (inactive) | > 100 µM (inactive) | > 100 µM (inactive) | > 100 µM (inactive) | > 100 µM (inactive) | > 100 µM (inactive) | > 100 µM (inactive) | > 100 µM (inactive) | > 100 µM (inactive) | > 100 µM (inactive) | > 100 µM (inactive) | > 100 µM (inactive) | > 100 µM (inactive) | > 100 µM (inactive) | > 100 µM (inactive)
4 | O=C(O)CCc1nc2c(n1-c1ccccc1)C(=O)c1ccccc1C2=O | > 100 µM (inactive) | 50.2 µM (inactive) | > 100 µM (inactive) | > 100 µM (inactive) | > 100 µM (inactive) | > 100 µM (inactive) | > 100 µM (inactive) | > 100 µM (inactive) | > 100 µM (inactive) | 70.5 µM (inactive) | > 100 µM (inactive) | > 100 µM (inactive) | > 100 µM (inactive) | > 100 µM (inactive) | > 100 µM (inactive) | > 100 µM (inactive) | > 100 µM (inactive) | > 100 µM (inactive) | > 100 µM (inactive) | > 100 µM (inactive)
5 | COc1ccc(C2=NN(c3ccccc3)C(c3cc4cc(Br)ccc4nc3Cl)C2)cc1 (centres undefined) | – | 17.5 µM (inactive) | > 25 µM (inactive) | 9.51 µM (inactive) | > 25 µM (inactive) | > 25 µM (inactive) | 20.3 µM (inactive) | > 25 µM (inactive) | > 25 µM (inactive) | > 25 µM (inactive) | 16.3 µM (inactive) | 14.1 µM (inactive) | 22.8 µM (inactive) | > 25 µM (inactive) | 11.9 µM (inactive) | > 25 µM (inactive) | 15.1 µM (inactive) | 20.8 µM (inactive) | > 25 µM (inactive) | –
6 | O=C(CCCCCC(=O)N1CC(CCl)c2ccc([N+](=O)[O-])cc21)N1CC(CCl)c2ccc([N+](=O)[O-])cc21 (centres undefined) | > 100 µM (inactive) | > 100 µM (inactive) | > 100 µM (inactive) | 87.1 µM (inactive) | > 100 µM (inactive) | > 100 µM (inactive) | > 100 µM (inactive) | > 100 µM (inactive) | > 100 µM (inactive) | > 100 µM (inactive) | 9.31 µM (inactive) | > 100 µM (inactive) | > 100 µM (inactive) | > 100 µM (inactive) | > 100 µM (inactive) | 48.1 µM (inactive) | – | > 100 µM (inactive) | > 100 µM (inactive) | > 100 µM (inactive)
7 | CCOc1ccc2nc(NC(=O)/C(CC(=O)CC(C3=C(O)c4ccccc4CC3=O)c3ccccc3)=N\O)sc2c1 (centres undefined) | > 100 µM (inactive) | > 100 µM (inactive) | > 100 µM (inactive) | > 100 µM (inactive) | > 100 µM (inactive) | > 100 µM (inactive) | > 100 µM (inactive) | > 100 µM (inactive) | > 100 µM (inactive) | > 100 µM (inactive) | > 100 µM (inactive) | > 100 µM (inactive) | > 100 µM (inactive) | > 100 µM (inactive) | > 100 µM (inactive) | 52.1 µM (inactive) | > 100 µM (inactive) | > 100 µM (inactive) | > 100 µM (inactive) | –
8 | CC(=O)O[C@@H]1[C@@H](C)[C@]2(CC(c3ccoc3)OC2O)C2CCC3O[C@]3(C)[C@]2(C)[C@@H]1OC(C)=O (some centres undefined) | 20.4 µM (inactive) | 33.7 µM (inactive) | 42 µM (inactive) | 71.6 µM (inactive) | 25.2 µM (inactive) | > 100 µM (inactive) | 12.5 µM (inactive) | 91 µM (inactive) | 37.4 µM (inactive) | 22.3 µM (inactive) | 23.4 µM (inactive) | – | > 100 µM (inactive) | 82.6 µM (inactive) | 56.4 µM (inactive) | 46.7 µM (inactive) | 47.3 µM (inactive) | 42.1 µM (inactive) | 19.1 µM (inactive) | 47.5 µM (inactive)
9 | CNC/C(Cl)=N/S(=O)(=O)c1ccc(C)cc1 | 9.64 µM (inactive) | 8.09 µM (inactive) | 12.4 µM (inactive) | 14.7 µM (inactive) | 16.3 µM (inactive) | 21 µM (inactive) | 10 µM (inactive) | 19.5 µM (inactive) | 7.83 µM (inactive) | 7.16 µM (inactive) | 3.84 µM (inactive) | 36.1 µM (inactive) | 13.2 µM (inactive) | 10.3 µM (inactive) | 15.6 µM (inactive) | 5.18 µM (inactive) | 13.2 µM (inactive) | 6.85 µM (inactive) | – | 12.7 µM (inactive)
10 | NC(=O)CC1(O)C=CC(=O)C=C1 | > 100 µM (inactive) | > 100 µM (inactive) | > 100 µM (inactive) | > 100 µM (inactive) | > 100 µM (inactive) | > 100 µM (inactive) | > 100 µM (inactive) | – | > 100 µM (inactive) | > 100 µM (inactive) | 88.7 µM (inactive) | > 100 µM (inactive) | 41.9 µM (inactive) | > 100 µM (inactive) | > 100 µM (inactive) | > 100 µM (inactive) | > 100 µM (inactive) | > 100 µM (inactive) | > 100 µM (inactive) | > 100 µM (inactive)
11 | COCC[N+](CCNC(=O)c1cccc2c(N)c3cccc(C)c3nc12)(CCOC)Cc1ccc([N+](=O)[O-])cc1 | 16 µM (inactive) | 17.2 µM (inactive) | 16.7 µM (inactive) | 28.4 µM (inactive) | 21.8 µM (inactive) | 30.9 µM (inactive) | 43.3 µM (inactive) | 12.4 µM (inactive) | 29.8 µM (inactive) | 23.1 µM (inactive) | 2.99 µM (inactive) | – | > 100 µM (inactive) | 29.6 µM (inactive) | 24.2 µM (inactive) | 27 µM (inactive) | 13.5 µM (inactive) | 31.1 µM (inactive) | 3.57 µM (inactive) | 67.3 µM (inactive)
12 | Cc1c(C#N)c2nc3ccccc3n2c(=O)/c1=C/Nc1ccc(Cl)cc1 | 15.8 µM (inactive) | 16.6 µM (inactive) | – | 7.71 µM (inactive) | 22.7 µM (inactive) | 9.64 µM (inactive) | > 100 µM (inactive) | 22.9 µM (inactive) | 18.1 µM (inactive) | 30.4 µM (inactive) | > 100 µM (inactive) | 2.72 µM (inactive) | 11.3 µM (inactive) | 3.83 µM (inactive) | 50.7 µM (inactive) | 7.21 µM (inactive) | 53.1 µM (inactive) | > 100 µM (inactive) | 34.9 µM (inactive) | 14.2 µM (inactive)
13 | O=C1Nc2c(Cl)cc(Cl)cc2/C1=N/N=C/c1ccco1 | 21.5 µM (inactive) | 33 µM (inactive) | 24.7 µM (inactive) | 31.7 µM (inactive) | 22.2 µM (inactive) | 61 µM (inactive) | 49.3 µM (inactive) | – | 25 µM (inactive) | 17.8 µM (inactive) | 24.8 µM (inactive) | 31.4 µM (inactive) | 24.3 µM (inactive) | 34.7 µM (inactive) | 7.6 µM (inactive) | 10.5 µM (inactive) | 33.4 µM (inactive) | 18.9 µM (inactive) | 27.2 µM (inactive) | 48.5 µM (inactive)
14 | CC(=O)c1sc2c(c1OC(=O)c1ccco1)c(=O)n(-c1ccccc1)c(=S)n2-c1ccccc1 | > 10 µM (inactive) | 18.2 µM (inactive) | 32.8 µM (inactive) | 5.16 µM (inactive) | 18.1 µM (inactive) | – | 28.9 µM (inactive) | 23.2 µM (inactive) | 26.9 µM (inactive) | 14 µM (inactive) | 29.4 µM (inactive) | 30.8 µM (inactive) | 32.5 µM (inactive) | 8.11 µM (inactive) | 26.4 µM (inactive) | 21.8 µM (inactive) | 38.2 µM (inactive) | 24.8 µM (inactive) | 19.5 µM (inactive) | 31.8 µM (inactive)
